From article PMC6366416, “Synthesis and in vitro anticancer activity of certain novel 1-(2-methyl-6-arylpyridin-3-yl)-3-phenylureas as apoptosis-inducing agents” (Journal of Enzyme Inhibition and Medicinal Chemistry, 2019)

Tests used:
A549 cell line = experiment: MTT anti-proliferative assay; format: cell-based; details: Homo sapiens, 48 h of incubation, mean ± SD of three experiments
Experimental: (§1) A549 (non-small cell lung cancer cell line) and HCT-116 (human colon cancer cell line), were obtained from American Type Culture Collection (Manassas, VA, USA). The cells were maintained in Dulbecco’s Modified Eagle’s Medium (DMEM) (Sigma-Aldrich, St. Louis, MO), and supplemented with 10% heat-inactivated FBS (Hyclone), 10 μg/mL of insulin (Manufacturer, Sigma, St. Louis, MO, USA), and 1% penicillin-streptomycin. MTT assay[29] was adopted to assess the in vitro antitumor activity of the newly synthesized pyridines 5a–l according to the reported procedures, using Doxorubicin as a standard treatment. Experimental conditions were tested using three replicates (three wells of the 96-well plate per experimental condition) and all experiments were carried out in triplicates. IC50 values were calculated by the use of the equation for Boltzman sigmoidal concentration–response curve using the nonlinear regression fitting models by Graph Pad, Prism version 5 (GraphPad Software Inc., La Jolla, CA).
(§2) All newly synthesized pyridines 5a–l were examined for their anti-proliferative activity towards two cancer cell lines: non-small cell lung cancer A549 cell line and colon cancer HCT-116 cell line. The MTT colorimetric assay was adopted to assess the anti-proliferative activity as described by Mosmann[29]. Doxorubicin was used as a control in this assay.

HCT-116 cell line = experiment: MTT anti-proliferative assay; format: cell-based; details: Homo sapiens, 48 h of incubation, mean ± SD of three experiments
Experimental: as §1, §2

WI-38 cell line = experiment: MTT cytotoxicity towards non-tumorigenic cells; format: cell-based, human; details: for IC50: WI-38, MTT, non-tumorigenic human lung fibroblast, mean ± SD of three experiments; for S. I. WI-38/A549: selectivity index, IC50 WI-38 / IC50 A549
Experimental: The cytotoxic activity of all synthesized pyridines 5a–l were assessed against non-tumorigenic human lung fibroblast WI-38 cell line to investigate their safety, using the MTT colorimetric assay.

| Compound | IC50 (A549 cell line) | IC50 (HCT-116 cell line) | IC50 (WI-38 cell line) | S. I. WI-38/A549 (WI-38 cell line) | melting point |
| --- | --- | --- | --- | --- | --- |
| Cc1nc(-c2ccc(F)cc2)ccc1NC(=O)Nc1cc(C(F)(F)F)cc(C(F)(F)F)c1 [Compound 5b, 1-(3,5-Bis(trifluoromethyl)phenyl)-3-(6-(4-fluorophenyl)-2-methylpyridin-3-yl)urea] | 24.1 ± 1.78 µM | 16 ± 1.52 µM | 151 ± 8.12 µM | 6.3 | 235 to 237 °C |
| Cc1nc(-c2cccs2)ccc1NC(=O)Nc1ccc2c(c1)OCO2 [Compound 5k, 1-(Benzo[d][1, 3]dioxol-5-yl)-3-(2-methyl-6-(thiophen-2-yl)pyridin-3-yl)urea] | 19.2 ± 2.05 µM | 16.4 ± 1.3 µM | 139 ± 10.4 µM | 7.2 | 239 to 241 °C |
| COc1cccc2c1C(=O)c1c(O)c3c(c(O)c1C2=O)C[C@@](O)(C(=O)CO)C[C@@H]3O[C@H]1C[C@H](N)[C@H](O)[C@H](C)O1 [Doxorubicin, reference compound] | 2.93 ± 0.28 µM | 3.1 ± 0.22 µM | – | – | – |
